We go through one substance from article PMC2873402, “Discovery of High-Affinity Protein Binding Ligands – Backwards” (PLoS ONE, 2010).

Common to all, as to type: binding
Experiment [1] deals with T1, AKT1 (Homo sapiens, UniProt P31749). The experiment can be described thus: IP of AKT1 spiked into A549 cell lysate, Western Blot. On the set-up: purchased Life Technologies. Particulars: 200 ng AKT1 (33.2 nM). The protocol:
(§1) As a preliminary test of specificity, 200 ng of AKT1 (33.2 nM) was spiked into increasing amounts of cell lysate prepared from un-stimulated A549 lung epithelial cells and streptavidin beads coated with 25 pmols of synbody (7.6∶1 synbody-to-AKT1 ratio) were used to pull down AKT1 using the same IP procedure and Western Blot protocol as before.
(§2) For all IP experiments, either a 1 µM or 250 nM solution of biotin-conjugated synbody was captured on 20 µL of streptavidin coated paramagnetic M-280 Dynabeads (Life Technologies) according to the manufacturers protocol. Synbody coated beads were washed five times with 1 mL of 100 mM phosphate buffered saline containing 0.05% Tween-20 (PBST) and incubated overnight at 4°C with shaking in the desired amount of target protein in A549 cell lysate. For Kd determination experiments, serial dilutions of AKT1 or ABL1 were prepared in binding buffer. After binding, beads were washed five times with 1 mL of PBST and heated at 70°C in 20 µL of 1× LDS loading buffer (Invitrogen) for 10 minutes. The samples were analyzed by SDS-PAGE gel with Western Blot detection using the appropriate antibody and imaged on a GE Healthcare Typhoon Trio.
For orientation: In western blotting, separated proteins are transferred to a membrane and probed.

The subject of experiment [2] is GRP58 (protein disulfide-isomerase A3). Put plainly: SPR screening against immobilized GRP58. Particulars: 100 nM synbody, Biacore T-100, CM5 amine coupling, 25°C immobilization, 90 s association, 240 s dissociation. The protocol: The synbody (100nM concentration) was screened by Surface Plasmon Resonance (SPR) against immobilized AKT1 and GRP58 on a Biacore T-100 SPR. The synbody appeared to have high affinity for AKT1 and low affinity for GRP58 (Figure S2). To accurately determine the binding kinetics of the synbody-AKT1 complex, several concentrations of synbody were injected over a low-density surface of biotin-labeled AKT1 captured on a Neutratvidin SPR chip using a Biacore A-100.
SPR screening of the synbody against AKT1 and GRP58 was performed on a Biacore T-100 (GE Healthcare, Piscataway, NJ, USA). The series S sensor chip CM5, amine coupling reagents and HBS-EP were obtained from GE Healthcare. A standard amine immobilization protocol was performed at 25°C using NaHCO3 (10mM in 150mM NaCl, pH 4.5) as the immobilization buffer. The CM-5 dextran chip was activated by a 10 minute injection of a freshly prepared 1∶1 solution of 400 mM 1-ethyl-3-(3-dimethylaminopropyl)-carbodimide (EDC): 100 mM N-hydroxysuccimide (NHS) in water. The NHS-carboxy groups of the dextran surface were treated with a solution of AKT1 or GRP58 (25 µg/ml) in sodium acetate (pH 5.0) for 8 mins at a flow rate of 10 µl/min. Any residual active sites were then quenched by a 5 min pulse of ethylene diamine (1M, pH 8.5). […]
Background: In SPR one partner is held on a chip, and binding of the other changes the refractive index at the surface.

Experiment [3] concerns the target T1, AKT1. The experiment can be described thus: IP of endogenous AKT1 from A549 lysate. On the set-up: N-terminal vector leader of pEXP5-NT (6xHis + TEV site by own knowledge of the vector); made in house; host or cells: Expressway Mini Cell-Free Expression System (in vitro translation). Conditions: un-stimulated A549 lysate, 25 pmols synbody. The protocol:
as §1, §2

Experiment [4] concerns the target T1, AKT1. The experiment can be described thus: IP of AKT1 from pre-cleared A549 lysate with silver stain detection. The arrangement: purchased Life Technologies. The protocol: However, to more rigorously test the specificity of the synbody, we reduced the molar ratio of synbody to protein to approximately 2 to 1 and performed an IP to examine other proteins that were non-specifically bound by the synbody. In this experiment, 400 ng of AKT1 (66.4 nM) was spiked into 100 and 500 µg of A549 cell lysate pre-cleared on streptavidin beads (Figure S3) and precipitated using streptavidin beads coated with 15 pmols of synbody. Synbody coated beads and uncoated streptavidin beads were incubated overnight, washed, and bound proteins were eluted. Elution samples were split with half of the sample analyzed by silver stain and half analyzed by Western Blot (Figure 3E).
as §2
Due to the high-level of A549 lysate protein binding to the magnetic beads used previously, we pre-cleared the cell lysate prior to IP. This was accomplished by overnight incubation of 1 mL of lysate (∼5 mg/mL) with 1 mL of streptavidin beads. The supernatant was removed and this lysate was used in subsequent experiments. […] One half of each elution sample was analyzed by SDS-PAGE followed by staining using a SNAP Silver Stain kit (Thermo Pierce) while the other half of the sample was analyzed by SDS-PAGE with Western Blot detection as before.

Bridge positions count the residues as written; N and C are the ends. Ends that are not written are not given here. I, II: the chains in the order shown. * marks the point of attachment. StBu = CC(C)(C)S*

T1 sequence (P31749 whole entry): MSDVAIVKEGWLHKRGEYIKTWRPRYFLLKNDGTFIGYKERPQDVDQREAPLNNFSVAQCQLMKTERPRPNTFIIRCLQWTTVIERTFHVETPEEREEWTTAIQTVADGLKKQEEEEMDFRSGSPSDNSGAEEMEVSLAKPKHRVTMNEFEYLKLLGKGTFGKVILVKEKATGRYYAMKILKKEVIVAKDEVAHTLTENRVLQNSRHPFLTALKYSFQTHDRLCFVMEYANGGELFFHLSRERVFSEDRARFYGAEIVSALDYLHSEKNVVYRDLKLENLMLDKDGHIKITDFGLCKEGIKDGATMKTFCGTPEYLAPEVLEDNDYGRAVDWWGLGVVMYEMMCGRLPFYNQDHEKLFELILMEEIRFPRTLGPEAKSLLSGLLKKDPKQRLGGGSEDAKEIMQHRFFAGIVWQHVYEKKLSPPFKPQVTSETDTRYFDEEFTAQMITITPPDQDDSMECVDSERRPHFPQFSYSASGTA

On to “I: AHKVVPQRQIRHAYNRYGSGKC(StBu)-NH2 / II: FRGWAHIFFGPHVIYRGGSG (amide I:21-II:C) [synbody]”, for which, in experiment [1] (25 pmols synbody (7.6:1), A549 lysate), the “excess cell extract in the presence of which AKT1 is precipitated” value is 2,500 fold excess. The “precipitation of AKT1 from A549 lysate” value in experiment [1] (25 pmols synbody (7.6:1 synbody-to-AKT1), increasing A549 lysate) is on record as “successfully pulled AKT1 out of the cell lysate in the presence of an increasing concentration of A549 lysate with little reduction in AKT1 signal intensity”. The “affinity for GRP58 by SPR screening” value in experiment [2] is on record as “low affinity”. For the same substance, the “precipitation of endogenous AKT1” value in experiment [3] was “precipitates the very low level endogenous AKT1 from the un-stimulated cell lysate”. In addition, the “proteins precipitated (silver stain)” value in experiment [4] (400 ng AKT1 (66.4 nM) in pre-cleared A549 lysate, 500 µg (5mg/ml), 15 pmols synbody (approx. 2:1)) was “AKT1 was precipitated along with two other prominent proteins”. Further, the dominant band precipitated result in experiment [4] (400 ng AKT1 in 100 or 500 µg pre-cleared A549 lysate, Western Blot confirmation) was “the dominant band precipitated by the synbody was AKT1”. The “specificity” value in experiment [4] (IP silver stain, A549 lysate) was “useful, though not perfect specificity”.
